Source: the supplement of paper PMC10307832

Key:
Experiment in all cases: relative viability (nuclei count vs DMSO), 5 days (fraction); higher = more cells survive
[1] = compound: C[C@@H](C(=O)N[C@@H](C1CCCCC1)C(=O)N2CCC[C@H]2C(=O)N[C@@H]3[C@@H](CC4=CC=CC=C34)OCC#CC#CCO[C@@H]5CC6=CC=CC=C6[C@@H]5NC(=O)[C@@H]7CCCN7C(=O)[C@H](C8CCCCC8)NC(=O)[C@H](C)NC)NC [AZD5582] + Nc1nc2[nH]cc(CCc3ccc(C(=O)N[C@@H](CCC(=O)O)C(=O)O)cc3)c2c(=O)[nH]1 [Pemetrexed] (partner 0.2 µM)
Method in brief: (§1)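 Each reported value is a median over duplicate plates. It expresses relative viability: treated-well nuclei count divided by vehicle-well nuclei count. Lung cancer cell lines in 1536-well plates were dosed by pin tool a day after seeding, alone with one drug or with a fixed anchor-drug dose plus five library-drug doses (not always all listed) in √10 steps, and nuclei were counted after 5 days.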

[2] = compound: Cn1nnc2c(C(N)=O)ncn2c1=O [Temozolomide] + COc1cccc2cc(-c3nc([C@H]4CC[C@H](C(=O)O)CC4)n4ncnc(N)c34)[nH]c12 [OSI-027] (partner 0.5 µM)
Method in brief: as §1

[3] = compound: Cn1nnc2c(C(N)=O)ncn2c1=O [Temozolomide] + Nc1ncn([C@H]2C[C@H](O)[C@@H](CO)O2)c(=O)n1 [Decitabine] (partner 2 µM)
Method in brief: as §1

[4] = compound: Cn1nnc2c(C(N)=O)ncn2c1=O [Temozolomide] + O=C(c1cc(Cc2n[nH]c(=O)c3ccccc23)ccc1F)N1CCN(C(=O)C2CC2)CC1 [Olaparib] (partner 8 µM)
Method in brief: as §1

| Cell Line | relative viability ([1]; first compound 0.001581 µM) | relative viability ([1]; first compound 0.005 µM) | relative viability ([1]; first compound 0.01581 µM) | relative viability ([1]; first compound 0.05 µM) | relative viability ([2]; first compound 0.2 µM) | relative viability ([2]; first compound 0.6325 µM) | relative viability ([2]; first compound 2 µM) | relative viability ([2]; first compound 6.325 µM) | relative viability ([2]; first compound 20 µM) | relative viability ([3]; first compound 0.2 µM) | relative viability ([3]; first compound 0.6325 µM) | relative viability ([3]; first compound 2 µM) | relative viability ([3]; first compound 6.325 µM) | relative viability ([3]; first compound 20 µM) | relative viability ([4]; first compound 0.2 µM) | relative viability ([4]; first compound 0.6325 µM) | relative viability ([4]; first compound 2 µM) | relative viability ([4]; first compound 6.325 µM) | relative viability ([4]; first compound 20 µM) |
| --- | --- | --- | --- | --- | --- | --- | --- | --- | --- | --- | --- | --- | --- | --- | --- | --- | --- | --- | --- |
| 201T | 0.311 | 0.299 | 0.298 | 0.281 | 0.77 | 0.716 | 0.583 | 0.769 | 0.794 | 0.832 | 0.877 | 0.866 | 0.821 | 0.843 | 0.843 | 0.891 | 0.884 | 0.809 | 0.742 |
| A549 |  |  |  |  |  |  |  |  |  | 0.314 | 0.184 | 0.289 | 0.246 | 0.207 | 0.358 | 0.344 | 0.345 | 0.17 | 0.117 |
| A-427 | 0.931 | 0.92 | 0.978 | 0.89 | 0.481 | 0.4 | 0.507 | 0.365 | 0.299 | 0.565 | 0.538 | 0.459 | 0.443 | 0.396 | 0.681 | 0.729 | 0.672 | 0.47 | 0.325 |
| ABC-1 |  |  |  |  | 0.554 | 0.513 | 0.564 | 0.517 | 0.585 | 0.931 | 0.878 | 1.59 | 0.94 | 1.24 | 0.921 | 0.673 | 1.09 | 0.85 | 0.696 |
| BEN | 0.663 | 0.723 | 0.925 | 0.759 | 0.326 | 0.289 | 0.296 | 0.283 | 0.306 | 0.77 | 0.677 | 0.808 | 0.7 | 0.659 | 0.891 | 1.05 | 1.21 | 0.736 | 0.401 |
| CAL-12T | 0.792 | 0.811 | 1.11 | 0.967 | 0.728 | 0.712 | 0.914 | 0.608 | 0.657 |  |  |  |  |  | 0.865 | 0.754 | 0.775 | 0.697 | 0.606 |
| COR-L23 | 0.201 | 0.206 | 0.191 | 0.196 | 1.01 | 0.714 | 0.766 | 0.814 | 0.652 | 0.452 | 0.493 | 0.478 | 0.419 | 0.404 | 0.374 | 0.377 | 0.318 | 0.257 | 0.189 |
| COR-L 105 | 1.09 | 1.11 | 1 | 1.25 | 0.476 | 0.781 | 0.735 | 0.742 | 0.303 | 0.691 | 0.643 | 0.649 | 0.739 | 0.535 | 0.585 | 0.577 | 0.636 | 0.661 | 0.693 |
| Calu-6 |  |  |  |  |  |  |  |  |  |  |  |  |  |  | 0.787 | 0.603 | 0.6 | 0.484 | 0.259 |
| ChaGo-K-1 | 0.243 | 0.267 | 0.254 | 0.276 | 0.623 | 0.543 | 0.685 | 0.508 | 0.554 | 0.521 | 0.524 | 0.529 | 0.54 | 0.507 | 0.437 | 0.417 | 0.4 | 0.315 | 0.228 |
| EBC-1 |  |  |  |  |  |  |  |  |  |  |  |  |  |  | 0.765 | 0.663 | 0.795 | 0.666 | 0.5 |
| EKVX | 0.382 | 0.39 | 0.344 | 0.375 | 0.513 | 0.669 | 0.555 | 0.686 | 0.591 |  | 0.295 | 0.236 | 0.34 | 0.221 |  | 0.735 | 0.79 | 0.79 | 0.479 |
| EMC-BAC-2 | 0.417 | 0.406 | 0.426 | 0.46 | 0.454 | 0.355 | 0.369 | 0.396 | 0.419 | 1.01 | 1.05 | 1.01 | 0.993 | 0.927 | 0.667 | 0.504 | 0.455 | 0.367 | 0.271 |
| EPLC-272H |  |  | 0.346 | 0.104 | 0.257 | 0.279 | 0.295 | 0.291 | 0.216 | 0.357 | 0.395 | 0.385 | 0.401 | 0.312 | 1.13 | 0.739 | 0.833 | 0.914 | 0.49 |
| H3255 | 0.492 | 0.563 | 0.512 | 0.573 |  | 0.656 | 0.606 | 0.569 | 0.208 |  | 0.652 | 0.812 | 0.514 | 0.187 |  | 0.554 | 0.565 | 0.477 | 0.345 |
| HARA | 0.22 | 0.213 | 0.214 | 0.231 | 0.318 | 0.656 | 0.558 | 0.439 | 0.226 | 0.677 | 0.607 | 0.594 | 0.523 | 0.489 | 0.9 | 1.19 | 0.844 | 1.01 | 0.444 |
| HCC-15 | 0.227 | 0.197 | 0.218 | 0.211 | 0.778 | 0.68 | 0.683 | 0.695 | 0.669 | 0.738 | 0.633 | 0.588 | 0.617 | 0.798 | 0.791 | 0.767 | 0.684 | 0.637 | 0.589 |
| HCC-44 | 0.587 | 0.615 | 0.614 | 0.402 | 0.682 | 0.425 | 0.477 | 0.494 | 0.477 | 1.04 | 0.991 | 0.963 | 0.951 | 0.966 | 0.975 | 1.02 | 0.949 | 1.02 | 0.854 |
| HCC-78 | 0.931 | 0.878 | 0.901 | 0.949 | 0.347 | 0.349 | 0.362 | 0.383 | 0.349 | 0.743 | 0.679 | 0.763 |  | 0.614 | 0.676 | 0.778 | 0.855 |  | 0.471 |
